In patent US11141455B2, “Peptide analogues with branched amino acid probe(s)” (priority 2014, dated 2021):
Where a SMILES comes first, the peptide text is derived from it.

Key:
[1] = biological target: T1, MC3r (Homo sapiens, UniProt P41968); assay: Radioligand binding, displacement of 125I-NDP-αMSH (Cerep); conditions: Example 2, α-MSH analogues
T1 construct: 0959 (cAMP); host or cells: CHO cells
Experimental: Murine B16-F1 cells expressing MCr1 are used for determination of binding affinity to and agonist activity against the MC1r. Human recombinant CHO cells expressing MC3r, MC4r or MC5r are used for determination of affinity to or agonist activity against the MC3r, MC4r and MC5r, respectively. […] The test items are tested in a concentration range of 10^−13 to 10^−5M.

[2] = biological target: T2, human GLP-1 receptor (Homo sapiens, UniProt P43220); assay: cAMP production (HTRF) in CHO-K1 cells expressing GLP-1 receptor; type: cell-based; conditions: CHO-K1; read-out: Max efficacy in % of control peptide
T2 construct: expressed in transfected cells; host or cells: CHO-K1 cells
T2 sequence (P43220 24-463): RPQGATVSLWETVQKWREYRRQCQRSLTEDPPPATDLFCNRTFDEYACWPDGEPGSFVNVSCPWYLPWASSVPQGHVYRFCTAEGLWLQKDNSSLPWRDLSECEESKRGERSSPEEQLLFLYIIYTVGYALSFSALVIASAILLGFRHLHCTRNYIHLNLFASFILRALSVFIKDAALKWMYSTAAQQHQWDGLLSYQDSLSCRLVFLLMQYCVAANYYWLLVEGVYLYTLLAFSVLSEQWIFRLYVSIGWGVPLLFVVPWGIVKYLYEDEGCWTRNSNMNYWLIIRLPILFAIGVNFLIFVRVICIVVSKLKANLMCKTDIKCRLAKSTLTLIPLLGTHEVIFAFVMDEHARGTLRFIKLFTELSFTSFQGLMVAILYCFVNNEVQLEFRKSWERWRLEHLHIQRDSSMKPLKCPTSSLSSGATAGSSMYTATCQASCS

[3] = biological target: T3, recombinant human type 2 Formyl peptide receptor (FPR2) (Homo sapiens, UniProt P25090); assay: Aequorin light emission agonist assay in recombinant FPR2 cells; type: cell-based; conditions: at the highest tested dose; read-out: maximal agonist activity, % of max response of internal control Trp-Lys-Tyr-Met-Val-Met
T3 construct: expressed in transfected cells
T3 sequence (P25090 1-351): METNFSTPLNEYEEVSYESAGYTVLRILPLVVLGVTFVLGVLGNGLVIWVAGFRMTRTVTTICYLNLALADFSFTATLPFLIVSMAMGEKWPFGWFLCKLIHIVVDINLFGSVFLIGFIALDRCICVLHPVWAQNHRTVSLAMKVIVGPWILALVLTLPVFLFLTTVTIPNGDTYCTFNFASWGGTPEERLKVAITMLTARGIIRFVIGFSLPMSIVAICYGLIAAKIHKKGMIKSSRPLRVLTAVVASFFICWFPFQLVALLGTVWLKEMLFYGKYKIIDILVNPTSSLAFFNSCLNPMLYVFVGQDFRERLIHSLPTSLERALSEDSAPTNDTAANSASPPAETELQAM
Experimental: Recombinant cells co-expressing mitochondrial apoaequirin and recombinant human type 2 Formyl peptide receptor (FPR2) were grown for 18 hours prior to testing in media without antibiotics were detached by gentle flushing with PBS-EDTA (5 mM EDTA), recovered by centrifugation and re-suspended in assay buffer (DHEM/HAM's F12 with HEPES and 0.1% protease free BSA). Cells were then incubated for at least 4 hours at room temperature coelenterazine h (from Molecular Probes) before DR studies were conducted.
50 μl of cell suspension was injected on 50 μl of the test or control compound (solubilized in PBS/0.5% BSA and finally diluted from a stock solution of 1 mM) at increasing concentrations in 96 wells plates and then incubated 30 min at room temperature. The resulting light emission was recorded using the Hamamatsu functional drug Screening system 6000 (FDSS6000). For standardization of emission of recorded light across plates and between experiments 100 μM digitonin or 20 μM ATP were added to some of the wells.
The test compounds were tested in a concentration range from 10^−11 to 10^−5M
Data is presented as mean values.

T1 sequence (P41968 whole entry): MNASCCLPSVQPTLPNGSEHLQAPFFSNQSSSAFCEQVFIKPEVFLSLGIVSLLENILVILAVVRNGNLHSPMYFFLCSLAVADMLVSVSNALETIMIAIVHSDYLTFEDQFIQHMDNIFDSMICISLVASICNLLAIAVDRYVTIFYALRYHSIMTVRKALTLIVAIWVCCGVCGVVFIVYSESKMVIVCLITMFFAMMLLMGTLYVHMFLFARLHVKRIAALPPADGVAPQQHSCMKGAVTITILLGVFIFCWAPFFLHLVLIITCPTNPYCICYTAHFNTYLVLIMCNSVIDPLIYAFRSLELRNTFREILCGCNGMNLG

Compound	Ki [1] [nM]	Emax [2] [%]	Emax [3] [%]
CSCC[C@H](NC(=O)[C@H](CO)NC(=O)[C@H](Cc1ccc(O)cc1)NC(=O)[C@H](CO)NC(=O)[C@H](CCCCNC(=O)[C@H](CCCCN)NC(=O)[C@H](CCCCN)NC(C)=O)NC(C)=O)C(=O)N[C@@H](CCC(=O)O)C(=O)N[C@@H](Cc1c[nH]cn1)C(=O)N[C@@H](Cc1ccccc1)C(=O)N[C@@H](CCCNC(=N)N)C(=O)N[C@@H](Cc1c[nH]c2ccccc12)C(=O)NCC(=O)N[C@@H](CCCCN)C(=O)N1CCC[C@H]1C(=O)N[C@H](C(N)=O)C(C)C [Analogue 1]	24	101	
CSCC[C@H](NC(=O)[C@H](C)NC(C)=O)C(=O)N[C@H](C(=O)N[C@@H](CO)C(=O)N[C@@H](CCC(=O)O)C(=O)N[C@@H](Cc1ccccc1)C(=O)N[C@@H](CC(C)C)C(=O)N[C@@H](CCCCNC(=O)[C@H](CCCCN)NC(=O)[C@H](CCCCNC(=O)[C@H](CCCCN)NC(C)=O)NC(C)=O)C(=O)N[C@@H](CCC(N)=O)C(=O)N[C@@H](C)C(=O)N[C@@H](Cc1c[nH]c2ccccc12)C(N)=O)C(C)C [analogue 7] (HELM PEPTIDE1{[ac].A.M.V.S.E.F.L.K.Q.A.W.[am]}|PEPTIDE2{[CC(=O)N[C@@H](CCCCN)C(=O)NCCCC[C@H](NC(C)=O)C(=O)[*:2]].K}$PEPTIDE1,PEPTIDE2,9:R3-2:R2$$$V2.0)			85
